# Assay results published in ChEMBL document CHEMBL3745645, “Synthesis, in vitro antitumor activity, dihydrofolate reductase inhibition, DNA intercalation and structure-activity relationship studies of 1,3,5-triazine analogues” (Bioorg Med Chem Lett, 2016).
# The source made the active and inactive calls. No cut-off for these calls is given here.
# Tests used:
# Type in all cases: functional
# [1] = Cytotoxicity against human Caki1 cells at 10 uM after 48 hrs by SRB assay; conditions: CAKI-1, 48 h, read-out: GI
# [2] = Cytotoxicity against human RXF393 cells at 10 uM after 48 hrs by SRB assay; conditions: RXF 393, 48 h, read-out: GI
# [3] = Cytotoxicity against human TK10 cells at 10 uM after 48 hrs by SRB assay; conditions: TK-10, 48 h, read-out: GI
# [4] = Cytotoxicity against human PC3 cells at 10 uM after 48 hrs by SRB assay; conditions: PC-3, 48 h, read-out: GI
# [5] = system: MDA-MB-231; test: Cytotoxicity against human MDA-MB-231 cells at 10 uM after 48 hrs by SRB assay; conditions: MDA-MB-231, 48 h, read-out: GI
# [6] = Cytotoxicity against human BT549 cells at 10 uM after 48 hrs by SRB assay; conditions: BT-549, 48 h, read-out: GI
# [7] = system: MDA-MB-468; test: Cytotoxicity against human MDA-MB-468 cells at 10 uM after 48 hrs by SRB assay; conditions: MDA-MB-468, 48 h, read-out: GI
# [8] = system: CCRF-CEM; test: Cytotoxicity against human CCRF-CEM cells after 48 hrs by SRB assay
# [9] = Cytotoxicity against human COLO205 cells after 48 hrs by SRB assay; conditions: COLO 205, 48 h, pooled result: one value given for 7 cell lines, strains, targets or settings
# [10] = Cytotoxicity against human LOXIMVI cells after 48 hrs by SRB assay; conditions: LOX IMVI, pooled result: one value given for 9 cell lines, strains, targets or settings
# [11] = Cytotoxicity against human IGROV1 cells after 48 hrs by SRB assay; conditions: IGROV-1, 48 h, pooled result: one value given for 7 cell lines, strains, targets or settings
# [12] = Cytotoxicity against human PC3 cells after 48 hrs by SRB assay; conditions: PC-3, 48 h
# [13] = system: K562; test: Cytotoxicity against human K562 cells at 10 uM after 48 hrs by SRB assay; conditions: K562, 48 h, read-out: GI
# [14] = Cytotoxicity against human RPMI8226 cells at 10 uM after 48 hrs by SRB assay; conditions: RPMI-8226, 48 h, read-out: GI
# [15] = system: NCI-H226; test: Cytotoxicity against human NCI-H226 cells at 10 uM after 48 hrs by SRB assay; conditions: NCI-H226, 48 h, read-out: GI
# [16] = system: NCI-H23; test: Cytotoxicity against human NCI-H23 cells at 10 uM after 48 hrs by SRB assay; conditions: NCI-H23, 48 h, read-out: GI
# [17] = system: NCI-H460; test: Cytotoxicity against human NCI-H460 cells at 10 uM after 48 hrs by SRB assay; conditions: NCI-H460, 48 h, read-out: GI
# [18] = Cytotoxicity against human COLO205 cells at 10 uM after 48 hrs by SRB assay; conditions: COLO 205, 48 h, read-out: GI
# [19] = (§1) Cytotoxicity against human HCC2998 cells at 10 uM after 48 hrs by SRB assay; conditions: HCC 2998, 48 h, read-out: GI
# [20] = system: HCT-15; test: Cytotoxicity against human HCT15 cells at 10 uM after 48 hrs by SRB assay
# [21] = system: HT-29; test: Cytotoxicity against human HT-29 cells at 10 uM after 48 hrs by SRB assay
# [22] = Cytotoxicity against human SW620 cells at 10 uM after 48 hrs by SRB assay; conditions: SW-620, 48 h, read-out: GI
# [23] = system: SF-295; test: (§2) Cytotoxicity against human SF295 cells at 10 uM after 48 hrs by SRB assay
# [24] = Cytotoxicity against human SNB75 cells at 10 uM after 48 hrs by SRB assay; conditions: SNB-75, 48 h, read-out: GI
# [25] = Cytotoxicity against human LOXIMVI cells at 10 uM after 48 hrs by SRB assay; conditions: LOX IMVI, read-out: GI
# [26] = system: MDA-MB-435; test: Cytotoxicity against human MDA-MB-435 cells at 10 uM after 48 hrs by SRB assay; conditions: MDA-MB-435, 48 h, read-out: GI
# [27] = system: SK-MEL-28; test: Cytotoxicity against human SK-MEL-28 cells at 10 uM after 48 hrs by SRB assay
# [28] = system: UACC-257; test: (§3) Cytotoxicity against human UACC257 cells at 10 uM after 48 hrs by SRB assay
# [29] = system: UACC-62; test: (§4) Cytotoxicity against human UACC62 cells at 10 uM after 48 hrs by SRB assay
# [30] = Cytotoxicity against human IGROV1 cells at 10 uM after 48 hrs by SRB assay; conditions: IGROV-1, 48 h, read-out: GI
# [31] = Cytotoxicity against human OVCAR3 cells at 10 uM after 48 hrs by SRB assay; conditions: OVCAR-3, 48 h, read-out: GI
# [32] = (§5) Cytotoxicity against human OVCAR4 cells at 10 uM after 48 hrs by SRB assay; conditions: OVCAR-4, 48 h, read-out: GI
# [33] = Cytotoxicity against human OVCAR8 cells at 10 uM after 48 hrs by SRB assay; conditions: OVCAR-8, 48 h, read-out: GI
# [34] = system: HCC 2998; test: as §1
# [35] = as §2; conditions: SF-295, 48 h, read-out: GI
# [36] = as §3; conditions: UACC-257, 48 h, read-out: GI
# [37] = as §4; conditions: UACC-62, 48 h, read-out: GI
# [38] = system: OVCAR-4; test: as §5
# [39] = pooled result: one value given for 6 cell lines, strains, targets or settings
# [40] = pooled result: one value given for 2 cell lines, strains, targets or settings
compound,measurement,setting,value
Cc1nc2ccc(Nc3nc(NCCN4CCOCC4)nc(Nc4ccc(F)cc4)n3)cc2n1Cc1ccccc1,inhibition of growth at 10 µM,[1],44.4%
same,inhibition of growth at 10 µM,[2],88%
same,inhibition of growth at 10 µM,[3],39.4%
same,inhibition of growth at 10 µM,[4],28.5%
same,inhibition of growth at 10 µM,[5],66.7%
same,inhibition of growth at 10 µM,[6],50.1%
same,inhibition of growth at 10 µM,[7],86%
same,LC50,[8],55 µM
same,GI50,[8]; [39],1.96 µM
same,TGI,[8]; [39],6.82 µM
same,GI50,[9],2.6 µM
same,LC50,[9],24 µM
same,TGI,[9],8.51 µM
same,GI50,[10],1.91 µM
same,LC50,[10],24.2 µM
same,TGI,[10],4.08 µM
same,GI50,[11],4.01 µM
same,LC50 (concentration killing 50% of cells),[11],62.3 µM
same,TGI,[11],27.4 µM
same,LC50,[12],62.5 µM
same,GI50,[12]; [40],4.41 µM
same,TGI,[12]; [40],43.9 µM
same,inhibition of growth at 10 µM,[13],97%
same,inhibition of growth at 10 µM,[14],96.9%
same,inhibition of growth at 10 µM,[15],27.9%
same,inhibition of growth at 10 µM,[16],33%
same,inhibition of growth at 10 µM,[17],70.6%
same,inhibition of growth at 10 µM,[18],98.8%
same,inhibition of growth at 10 µM,[19],55.4%
same,growth inhibition (GI),[20],Active
same,growth inhibition (GI),[21],Active
same,inhibition of growth at 10 µM,[22],57.6%
same,growth inhibition (GI),[23],Active
same,inhibition of growth at 10 µM,[24],49.4%
same,inhibition of growth at 10 µM,[25],94.3%
same,inhibition of growth at 10 µM,[26],47.8%
same,growth inhibition (GI),[27],Active
same,growth inhibition (GI),[28],Active
same,growth inhibition (GI),[29],Active
same,inhibition of growth at 10 µM,[30],31%
same,inhibition of growth at 10 µM,[31],26.3%
same,inhibition of growth at 10 µM,[32],1.85%
same,inhibition of growth at 10 µM,[33],49.9%
Cc1nc2ccc(Nc3nc(NCCN)nc(Nc4ccc(F)cc4)n3)cc2n1Cc1ccccc1,inhibition of growth at 10 µM,[1],1.79%
same,inhibition of growth at 10 µM,[2],25.8%
same,inhibition of growth at 10 µM,[3],26.1%
same,inhibition of growth at 10 µM,[4],26.9%
same,inhibition of growth at 10 µM,[5],42.9%
same,inhibition of growth at 10 µM,[6],17%
same,inhibition of growth at 10 µM,[7],49.5%
same,inhibition of growth at 10 µM,[13],61.3%
same,inhibition of growth at 10 µM,[14],46.2%
same,inhibition of growth at 10 µM,[15],13.8%
same,inhibition of growth at 10 µM,[16],10.4%
same,inhibition of growth at 10 µM,[17],21.8%
same,inhibition of growth at 10 µM,[18],33.6%
same,growth inhibition (GI),[34],inactive
same,growth inhibition (GI),[20],inactive
same,inhibition of growth at 10 µM,"[21]; HT-29, 48 h, read-out: GI",55.5%
same,inhibition of growth at 10 µM,[22],1.71%
same,inhibition of growth at 10 µM,[35],11.6%
same,inhibition of growth at 10 µM,[24],20%
same,inhibition of growth at 10 µM,[25],30%
same,inhibition of growth at 10 µM,[26],9.38%
same,inhibition of growth at 10 µM,[36],15.9%
same,inhibition of growth at 10 µM,[37],9.33%
same,inhibition of growth at 10 µM,[30],0.38%
same,inhibition of growth at 10 µM,[31],6.85%
same,growth inhibition (GI),[38],inactive
same,inhibition of growth at 10 µM,[33],17.7%
